Data published in paper PMC7146544, “Dual Plasmepsin-Targeting Antimalarial Agents Disrupt Multiple Stages of the Malaria Parasite Life Cycle” (Cell Host & Microbe, 2020).
“And” between values parts separate entries of the source, which are not always exact repeats. Equal entries are not always repeated. Where two headings read alike, the source gives them in different places.

How the values were obtained:
3D7 parasite cultures = experiment: Time of drug killing; type: cell-based, Plasmodium falciparum; settings: 80nM WM4, 40nM WM5, 5nM WM382, added to early rings
Experimental: 3D7 parasite cultures were synchronized using 5% sorbitol (Sigma) twice at 46 h intervals then again when the culture was a mix of late schizonts and early rings. […] The parasitemia of each culture was quantitated every 8 h for 48 h by collecting 50 μL samples for counting by flow cytometry (as previously described). The developmental stage of the parasites was confirmed at each time point by microscopic examination of Giemsa stained thin blood films. Media and compound were replaced at the 32 h time point.

[1] = system: WM5 and 4 resistant P. falciparum; experiment: microbe, parasite or virus in culture; type: cell-based, Plasmodium falciparum
Experimental: (§1) After 72 h incubation at 37°C each well was fixed at room temperature for 30 min with 50 μL of 0.25% glutaraldehyde (ProSciTech) diluted in PBS. Following centrifugation at 1200 rpm for 1 min, supernatants were discarded and parasites were stained with 50 μL of 5X SYBR Green (Invitrogen) diluted in PBS. 50,000 cells were counted by flow cytometry using a Cell Lab Quanta SC – MPL Flow Cytometer (Beckman Coulter) ([Bacon et al., 2007]). Growth was expressed as a percentage of the parasitemia obtained using a vehicle control. All samples were tested in triplicate. EC50 values were determined using GraphPad Prism.
The parent and resistant lines were then cloned by limiting dilution, the EC50 for each line was determined and genomic DNA was purified from clonal parasites (QIAGEN Blood and Tissue Kit).

[2] = biological target: T1, recombinant PMX protein (rPMX) (Plasmodium falciparum, UniProt Q8IAS0); type: biochemical, P. falciparum; set-up: full-length enzyme with prodomain and catalytic domain (pro-cat); 8xHis (C); made in house; host or cells: Spodoptera frugiperda (sf21) insect cells, baculovirus, secreted; compound added to the expression culture; settings: insect cell expression
Target sequence in this assay (Q8IAS0 27-573): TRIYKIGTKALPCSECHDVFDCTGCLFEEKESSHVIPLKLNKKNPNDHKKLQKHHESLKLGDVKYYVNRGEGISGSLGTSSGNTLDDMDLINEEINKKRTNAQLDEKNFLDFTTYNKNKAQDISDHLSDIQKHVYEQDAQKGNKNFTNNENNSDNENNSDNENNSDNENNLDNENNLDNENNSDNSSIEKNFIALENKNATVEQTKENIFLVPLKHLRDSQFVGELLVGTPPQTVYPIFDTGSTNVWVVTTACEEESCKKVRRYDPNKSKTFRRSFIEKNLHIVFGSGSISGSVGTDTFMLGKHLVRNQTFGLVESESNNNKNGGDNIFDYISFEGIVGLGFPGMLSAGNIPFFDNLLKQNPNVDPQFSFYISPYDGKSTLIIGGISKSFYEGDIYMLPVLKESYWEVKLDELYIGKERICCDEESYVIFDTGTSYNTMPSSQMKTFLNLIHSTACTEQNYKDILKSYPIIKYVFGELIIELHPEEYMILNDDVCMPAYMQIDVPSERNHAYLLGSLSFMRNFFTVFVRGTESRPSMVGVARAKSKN

[3] = biological target: T2, P. falciparum aspartic protease, PMV (Plasmodium falciparum, UniProt Q8I6Z5); experiment: Peptide cleavage (FRET) assay, PMV; type: biochemical; settings: calculated from IC50 with Cheng-Prusoff equation
T2 construct: made in house
T2 sequence (Q8I6Z5 whole entry): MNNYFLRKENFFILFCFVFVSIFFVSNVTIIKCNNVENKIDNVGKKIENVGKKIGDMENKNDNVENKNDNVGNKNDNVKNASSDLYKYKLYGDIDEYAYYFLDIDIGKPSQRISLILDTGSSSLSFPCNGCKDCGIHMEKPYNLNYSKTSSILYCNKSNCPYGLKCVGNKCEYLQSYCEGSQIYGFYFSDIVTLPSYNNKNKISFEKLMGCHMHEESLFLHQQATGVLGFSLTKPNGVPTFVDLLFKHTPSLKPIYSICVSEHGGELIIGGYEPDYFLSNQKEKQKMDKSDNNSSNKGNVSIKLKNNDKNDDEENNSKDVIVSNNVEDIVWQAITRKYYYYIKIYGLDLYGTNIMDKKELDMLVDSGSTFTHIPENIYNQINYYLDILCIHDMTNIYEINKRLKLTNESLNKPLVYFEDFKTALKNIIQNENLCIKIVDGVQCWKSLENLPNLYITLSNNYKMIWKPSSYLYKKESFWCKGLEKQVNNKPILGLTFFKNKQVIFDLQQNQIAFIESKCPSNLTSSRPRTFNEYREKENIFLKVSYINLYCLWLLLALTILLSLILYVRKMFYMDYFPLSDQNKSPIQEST

[4] = system: P. falciparum strains resistant to chloroquine, mefloquine, artemisinin, and atovaquone; experiment: EC50 for P. falciparum strains resistant to known antimalarials; type: cell-based, Plasmodium falciparum; settings: Figure S2
Experimental: as §1

P. berghei = experiment: Peters' 4-day suppressive test for P. berghei infection in mice; type: in vivo, Plasmodium berghei; settings: 4 days
Experimental: For results shown in Figure 1 A male Swiss mice were infected intraperitoneally (IP) with 1 × 10^6 P. berghei ANKA-parasitised red blood cells withdrawn from a previously infected donor mouse. Test compounds were prepared in a vehicle consisting of 10% DMSO/90% Solutol (5% Solutol® HS-15 in 0.9% saline). […] Peripheral blood samples were taken 24 h after administration of the last dose, and parasitemia was measured by microscopic analysis of Giemsa-stained blood smears. Parasitemia values were averages for 6 mice per group and are expressed as percent parasitemia. For results shown in Figure 4A ‘donor’ female Swiss mice were infected intraperitoneally (IP) with blood stage P. berghei parasites constitutively expressing GFP (P. berghei ANKA GFPcon 259cl2 ([Franke-Fayard et al., 2004]). Three days later, groups of 4 ‘acceptor’ Swiss mice were infected intravenously (IV) with 1 × 10^7 parasitised erythrocytes from the ‘donor’ mice. Two h post infection, experimental mice (4 per cohort) were left untreated (control mice) or treated orally on 4 consecutive days with test drugs formulated in 20% DMSO/60% PG/20% water (v/v/v) or chloroquine dissolved in water. […] Peripheral blood samples were taken 12 h after the last treatment, and parasitemia measured by flow cytometry (proportion of GFP-positive cells in 100,000 recorded events using FACSCalibur, BD) and microscopic analysis of Giemsa-stained blood smears. Parasitemia values were averages for 4 mice per group and are expressed as percent parasitemia.

[5] = system: P. falciparum schizonts (3D7); experiment: P. falciparum schizont egress inhibition assay; type: cell-based, Plasmodium falciparum; settings: compared with control
Experimental: Parasites purified by magnet separation (MACS; Miltenyi Biotec) were eluted into complete RPMI containing 1 nM Compound 1 (C1) to prevent further egress and synchronize egress to within a 5 min window ([Pino et al., 2017]). When schizont preparations were fully mature, the C1 was washed out with warm complete RPMI-HEPES medium and schizonts transferred to a microscopy chamber for live video time lapse (1 frame per 0.5 s) imaging under DIC conditions using a Zeiss Live Cell Axio observer microscope with x63 oil immersion objective and Zen Blue software used for image capture. Videos (Videos S1 and S2) were processed using Fiji (https://www.nature.com/articles/nmeth.2019). Total parasite numbers and egress events were calculated over 5 min window and expressed as average ± SD of 3 replicate experiments. Because the purified late-stage parasites cannot be fully synchronized to egress within the observation time window, only a proportion of the schizonts will egress during the period of observation. Because all treatment groups originated from the same culture (ie those treated with compound and DMSO vehicle control) the developmental stage is consistent between treatments and the difference in egress quantitation can be attributable to the drug treatment.

HepG2 cells = experiment: EC50 for HepG2 cells; type: cell-based; settings: Homo sapiens
PMX = biological target: T3, PMX (Plasmodium falciparum, UniProt Q8IAS0); type: binding, P. falciparum; settings: CETSA
T3 construct: endogenous in cells
T3 sequence (Q8IAS0 222-573): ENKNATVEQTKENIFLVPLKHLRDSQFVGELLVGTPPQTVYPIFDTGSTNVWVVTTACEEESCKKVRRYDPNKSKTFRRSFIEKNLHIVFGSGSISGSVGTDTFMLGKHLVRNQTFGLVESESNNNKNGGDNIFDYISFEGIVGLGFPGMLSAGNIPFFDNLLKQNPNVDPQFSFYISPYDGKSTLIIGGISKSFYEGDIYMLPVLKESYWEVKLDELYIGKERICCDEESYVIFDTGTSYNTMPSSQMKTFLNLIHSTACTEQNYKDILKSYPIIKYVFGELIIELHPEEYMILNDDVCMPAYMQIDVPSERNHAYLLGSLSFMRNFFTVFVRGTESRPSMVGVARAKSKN
Experimental: Lysate CETSA experiments were conducted essentially as described ([Dziekan et al., 2019]). Samples for CETSA studies were prepared using highly synchronous schizont stage P. falciparum 3D7-PMIX_HA and 3D7-PMX_HA parasites. […] After 2–4 h incubation, mature schizonts were washed once with PBS and pelleted infected red blood cells were lysed in 20 volumes of 0.15% (w/v) saponin in PBS and incubated on ice for 20 min. Parasites were washed 3 times in ice-cold PBS and the final pellet was resuspended in 10 volumes of lysis buffer (0.4% NP-40 (Roche) / PBS) and lysed by three freezing (dry ice/ethanol bath) - thawing cycles. The lysates were cleared by centrifugation at 16,000 g for 30 min and the supernatant containing soluble parasite proteins kept at −80°C until use. […] The proteins were electrophoretically transferred to nitrocellulose membrane using a dry-blotting system (iBlot, Thermo Fisher Scientific). After blocking the membrane in 5% non-fat milk in TBST (M-TBST), PMIX_HA and PMX_HA were detected with anti-HA mAb 12CA5 (produced in-house) followed by HRP-conjugated a-mouse IgG Abs (Merck). Blots were developed with ECL Western Blotting Substrate (Thermo Fisher Scientific), and the images were generated and analyzed using ChemiDoc Gel Imaging System and Image Lab Software (Bio-Rad).

[6] = biological target: T1, recombinant PMX protein (rPMX); experiment: biochemical
Target sequence in this assay (Q8IAS0 222-573): as above
Experimental: All wells were backfilled to 200 nL DMSO such that it remains constant across the assay plates (1% final). IC50 values were calculated by Dotmatics 5.3 and Spotfire 7.11.1 software using a nonlinear regression four-parameter fit analysis. The equation used is sigmoidal dose response (variable slope), Y = bottom + (top − bottom)/(1+10((logEC50 − X) × Hill Slope)). Compound Ki values were calculated from the IC50s using the Cheng-Prusoff equation, Ki = IC50/(1 + [S]/Km).
All compound potency assays were conducted in 20 μl total volume. For each assay, 10 μl of recombinant enzymes in respective assay buffers (Table) were dispensed into compound containing assay plates using a Multidrop Combi dispenser and allowed to incubate for 15 min. The reactions were started with a further 10 μl addition of FRET peptide substrates and reactions incubated at 37 °C for various times (Table).Samples were excited at 340 nm and fluorescence emission measured at 492 nm using an Envision fluorescence plate reader (Perkin-Elmer).

[7] = Plasmodium falciparum, 3D7, read-out: EC50, 3D7-WM4.1, WM4-resistant line 3D7-WM4.1
[8] = Plasmodium falciparum, 3D7, read-out: EC50, 3D7-WM5.1, WM5-resistant line 3D7-WM5.1

Row | Compound | stage of arrest of blood-stage development (3D7 parasite cultures) | EC50 [1, 7] [nM] | EC50 ([1]; Plasmodium falciparum, 3D7, read-out: EC50, 3D7-WM4.2, WM4-resistant line 3D7-WM4.2, Figure S1) [nM] | EC50 [1, 8] [nM] | EC50 ([1]; Plasmodium falciparum, 3D7, read-out: EC50, 3D7-WM5.2, WM5-resistant line 3D7-WM5.2, Figure S1) [nM] | EC50 ([1]; Plasmodium falciparum, 3D7, read-out: EC50, 3D7-WM5.3, WM5-resistant line 3D7-WM5.3, Figure S1) [nM] | EC50 ([1]; read-out: EC50, 3D7-WM4.1, WM4-resistant line 3D7-WM4.1) | EC50 ([1]; read-out: EC50, 3D7-WM5.1, WM5-resistant line 3D7-WM5.1) [nM] | cleavage of rPMX into catalytic and pro-domain [2] | Ki [3] [nM] | cross-resistance in drug resistant P. falciparum strains [4] | in vivo activity against P. berghei infection (P. berghei; intraperitoneal, 20 mpk q.d., Swiss mice) | egress of merozoites from the erythrocyte [5] | EC50 (HepG2 cells) [nM] | effect on thermal stability of PMX (PMX) | IC50 [6] [nM] | Ki [6] [nM] | in vivo efficacy against P. berghei (P. berghei; oral, 20 mg/kg (mpk) b.i.d.)
1 | CC(NC(=O)c1cccc(C(c2ccccc2)N2C(=N)NC(C)(C(C)C)CC2=O)c1)c1ccccc1 (racemic) [WM4] | arrested at late schizont stage | 113 ± 2.3 | 140 ± 52.7 | 93.2 ± 2.04 | 142 ± 5.5 | 135 ± 3.8 | 93 nM and 65.9 nM | 115 ± 18.8 | cleavage was inhibited | 19800 ± 500 | no cross-resistance | partial efficacy | potently inhibited egress of merozoites | 14200 ± 2300 | stabilized PMX | 0.81 | 0.5 ± 0.2 | –
2 | CCC1(CC)CC(=O)N([C@@H]2CCOc3ccc(C(=O)N[C@H]4CC(C)(C)Oc5ccccc54)cc32)C(=N)N1 [WM382] | arrested at late schizont stage | 1.88 ± 0.03 | – | 2.04 ± 0.05 | – | – | – | – | cleavage was inhibited | 13400 ± 620 | no cross-resistance | – | potently inhibited egress of merozoites | 24800 ± 2200 | significantly more thermostable | 0.06 | 0.035 ± 0.008 | significantly greater in vivo efficacy than WM4 and WM5
